Data from the kinase profiling compilation of Christmann-Franck et al. (2016).

The compounds below were run against BRSK2 (human) (UniProt Q8IWQ3) (assay: radiometric filter-binding kinase assay). Settings: compound 100.0 µM; ATP 50 µM.
`Cc1cccc(C)c1-c1cn2nc(N)nc2cn1` showed an inhibition of 18%.
For `COc1ccc(-c2cc3c(=O)[nH]cnc3s2)cc1OC`, the inhibition was 9%.
Work on `COc1ccc(NC(=S)Nc2cnc3[nH]cnn3c2=O)cn1` yielded an inhibition of 34%.

These compounds were tested against TEK (human) (UniProt Q02763) (assay: radiometric filter-binding kinase assay). Settings: compound 100.0 µM; ATP 20 µM.
TEK (human), sequence (Q02763 whole entry, looked up): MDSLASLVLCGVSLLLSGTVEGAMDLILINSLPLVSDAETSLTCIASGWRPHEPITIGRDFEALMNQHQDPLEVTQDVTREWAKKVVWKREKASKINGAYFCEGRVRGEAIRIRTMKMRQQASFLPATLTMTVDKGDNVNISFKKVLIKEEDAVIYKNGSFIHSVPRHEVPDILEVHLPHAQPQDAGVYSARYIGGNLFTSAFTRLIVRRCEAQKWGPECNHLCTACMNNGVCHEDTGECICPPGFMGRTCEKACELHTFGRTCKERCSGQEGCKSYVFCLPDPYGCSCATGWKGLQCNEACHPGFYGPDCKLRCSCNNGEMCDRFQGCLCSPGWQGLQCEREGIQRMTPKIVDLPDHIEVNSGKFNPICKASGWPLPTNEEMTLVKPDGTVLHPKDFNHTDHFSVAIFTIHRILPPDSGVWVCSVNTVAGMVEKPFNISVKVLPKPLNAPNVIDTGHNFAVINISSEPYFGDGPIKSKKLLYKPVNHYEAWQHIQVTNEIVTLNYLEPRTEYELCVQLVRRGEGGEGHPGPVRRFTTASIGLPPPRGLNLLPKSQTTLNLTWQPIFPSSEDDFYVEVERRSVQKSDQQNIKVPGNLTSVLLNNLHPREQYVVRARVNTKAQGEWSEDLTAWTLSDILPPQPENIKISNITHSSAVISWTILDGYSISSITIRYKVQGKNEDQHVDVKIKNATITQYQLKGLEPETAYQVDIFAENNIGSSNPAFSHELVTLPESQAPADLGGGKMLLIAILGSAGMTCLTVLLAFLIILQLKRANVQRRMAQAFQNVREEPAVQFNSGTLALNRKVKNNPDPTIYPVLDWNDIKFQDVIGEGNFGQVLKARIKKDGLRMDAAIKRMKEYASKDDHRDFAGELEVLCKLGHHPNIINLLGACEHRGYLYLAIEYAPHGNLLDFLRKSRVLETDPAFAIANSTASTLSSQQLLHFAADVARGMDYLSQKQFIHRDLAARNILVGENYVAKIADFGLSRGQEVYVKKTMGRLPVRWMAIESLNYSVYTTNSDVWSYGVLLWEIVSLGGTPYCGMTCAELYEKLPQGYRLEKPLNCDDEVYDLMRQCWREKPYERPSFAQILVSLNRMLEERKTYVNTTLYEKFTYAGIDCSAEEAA
`O=C(Nc1cnc2[nH]cnn2c1=O)c1ccccc1` was tested, and the inhibition was 0%.
For `Nc1nc2cnc(-c3ccccc3)cn2n1`, the inhibition was 39%.
With `Nc1cnc2c(-c3c(F)cccc3F)cccn2c1=O` the inhibition was 42%.
For `Cc1cccc(C)c1-c1cn2nc(N)nc2cn1`, the inhibition was 6%.
With `COc1ccc(-c2cc3c(=O)[nH]cnc3s2)cc1OC` the inhibition was 0%.
In the case of `COc1ccc(NC(=S)Nc2cnc3[nH]cnn3c2=O)cn1`, the inhibition is reported as 0%.

Each compound was assayed against SRC (human) (UniProt P12931) (assay: radiometric filter-binding kinase assay). Settings: compound 100.0 µM; ATP 50 µM.
In the case of `O=C(Nc1cnc2[nH]cnn2c1=O)c1ccccc1`, the inhibition is reported as 0%.
In the case of `Nc1nc2cnc(-c3ccccc3)cn2n1`, the inhibition is reported as 48%.
Work on `Nc1cnc2c(-c3c(F)cccc3F)cccn2c1=O` yielded an inhibition of 35%.
`Cc1cccc(C)c1-c1cn2nc(N)nc2cn1` showed an inhibition of 29%.
`COc1ccc(-c2cc3c(=O)[nH]cnc3s2)cc1OC` showed an inhibition of 0%.
For `COc1ccc(NC(=S)Nc2cnc3[nH]cnn3c2=O)cn1`, the inhibition was 38%.

What follows are compounds tested against CAMKK2 (human) (UniProt Q96RR4) (assay: radiometric filter-binding kinase assay). Settings: compound 100.0 µM; ATP 20 µM.
CAMKK2 (human), sequence (Q96RR4 whole entry, looked up): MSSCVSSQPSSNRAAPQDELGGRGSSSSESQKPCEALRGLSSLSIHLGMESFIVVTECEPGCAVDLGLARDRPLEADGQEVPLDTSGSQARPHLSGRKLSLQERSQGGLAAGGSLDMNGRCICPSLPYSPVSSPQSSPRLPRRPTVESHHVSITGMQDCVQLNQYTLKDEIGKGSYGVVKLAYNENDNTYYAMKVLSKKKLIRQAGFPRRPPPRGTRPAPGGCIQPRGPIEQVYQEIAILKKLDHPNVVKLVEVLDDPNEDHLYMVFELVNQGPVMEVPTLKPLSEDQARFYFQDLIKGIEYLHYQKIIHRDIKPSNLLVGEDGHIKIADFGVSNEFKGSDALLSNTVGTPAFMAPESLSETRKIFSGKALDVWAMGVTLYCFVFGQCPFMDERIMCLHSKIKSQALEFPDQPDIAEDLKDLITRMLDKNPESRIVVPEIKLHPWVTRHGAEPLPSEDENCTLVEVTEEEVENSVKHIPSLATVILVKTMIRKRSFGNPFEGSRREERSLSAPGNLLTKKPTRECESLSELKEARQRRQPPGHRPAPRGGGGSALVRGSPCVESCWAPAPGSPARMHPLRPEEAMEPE
Work on `O=C(Nc1cnc2[nH]cnn2c1=O)c1ccccc1` yielded an inhibition of 0%.
Work on `Nc1nc2cnc(-c3ccccc3)cn2n1` yielded an inhibition of 54%.
Compound `Nc1cnc2c(-c3c(F)cccc3F)cccn2c1=O` has an inhibition of 0%.
`Cc1cccc(C)c1-c1cn2nc(N)nc2cn1` showed an inhibition of 21%.
`COc1ccc(-c2cc3c(=O)[nH]cnc3s2)cc1OC` showed an inhibition of 0%.
Work on `COc1ccc(NC(=S)Nc2cnc3[nH]cnn3c2=O)cn1` yielded an inhibition of 0%.

The compounds below were run against STK11 CAB39 STRADA (human) (UniProt Q9Y376+Q7RTN6+Q15831) (assay: radiometric filter-binding kinase assay). Settings: compound 100.0 µM; ATP 20 µM.
In the case of `O=C(Nc1cnc2[nH]cnn2c1=O)c1ccccc1`, the inhibition is reported as 0%.
Work on `Nc1nc2cnc(-c3ccccc3)cn2n1` yielded an inhibition of 2%.
Compound `Nc1cnc2c(-c3c(F)cccc3F)cccn2c1=O` has an inhibition of 62%.
Compound `Cc1cccc(C)c1-c1cn2nc(N)nc2cn1` has an inhibition of 0%.
For `COc1ccc(-c2cc3c(=O)[nH]cnc3s2)cc1OC`, the inhibition was 0%.
In the case of `COc1ccc(NC(=S)Nc2cnc3[nH]cnn3c2=O)cn1`, the inhibition is reported as 0%.

The compounds below were run against YES1 (human) (UniProt P07947) (assay: radiometric filter-binding kinase assay). Settings: compound 100.0 µM; ATP 20 µM.
YES1 (human), sequence (P07947 whole entry, looked up): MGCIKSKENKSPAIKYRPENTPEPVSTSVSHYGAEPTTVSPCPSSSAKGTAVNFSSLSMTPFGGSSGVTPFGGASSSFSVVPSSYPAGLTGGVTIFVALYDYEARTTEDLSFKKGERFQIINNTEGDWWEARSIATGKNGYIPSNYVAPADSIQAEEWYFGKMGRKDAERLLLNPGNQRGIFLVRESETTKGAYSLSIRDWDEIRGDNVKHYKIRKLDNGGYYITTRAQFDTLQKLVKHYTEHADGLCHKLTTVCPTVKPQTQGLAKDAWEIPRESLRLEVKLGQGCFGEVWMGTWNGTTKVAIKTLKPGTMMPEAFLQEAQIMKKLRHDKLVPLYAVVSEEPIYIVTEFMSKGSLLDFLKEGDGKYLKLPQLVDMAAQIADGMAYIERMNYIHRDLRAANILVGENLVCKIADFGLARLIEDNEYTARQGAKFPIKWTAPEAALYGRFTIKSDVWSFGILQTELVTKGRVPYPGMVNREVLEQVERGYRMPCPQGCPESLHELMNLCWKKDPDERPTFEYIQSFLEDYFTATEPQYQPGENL
For `O=C(Nc1cnc2[nH]cnn2c1=O)c1ccccc1`, the inhibition was 0%.
`Nc1nc2cnc(-c3ccccc3)cn2n1` showed an inhibition of 89%.
Work on `Nc1cnc2c(-c3c(F)cccc3F)cccn2c1=O` yielded an inhibition of 57%.
`Cc1cccc(C)c1-c1cn2nc(N)nc2cn1` gave an inhibition of 42%.
`COc1ccc(-c2cc3c(=O)[nH]cnc3s2)cc1OC` was tested, and the inhibition was 0%.
`COc1ccc(NC(=S)Nc2cnc3[nH]cnn3c2=O)cn1` showed an inhibition of 30%.

The compounds below were run against CaMK1 (human) (UniProt Q14012) (assay: radiometric filter-binding kinase assay). Settings: compound 100.0 µM; ATP 50 µM.
CaMK1 (human), sequence (Q14012 whole entry, looked up): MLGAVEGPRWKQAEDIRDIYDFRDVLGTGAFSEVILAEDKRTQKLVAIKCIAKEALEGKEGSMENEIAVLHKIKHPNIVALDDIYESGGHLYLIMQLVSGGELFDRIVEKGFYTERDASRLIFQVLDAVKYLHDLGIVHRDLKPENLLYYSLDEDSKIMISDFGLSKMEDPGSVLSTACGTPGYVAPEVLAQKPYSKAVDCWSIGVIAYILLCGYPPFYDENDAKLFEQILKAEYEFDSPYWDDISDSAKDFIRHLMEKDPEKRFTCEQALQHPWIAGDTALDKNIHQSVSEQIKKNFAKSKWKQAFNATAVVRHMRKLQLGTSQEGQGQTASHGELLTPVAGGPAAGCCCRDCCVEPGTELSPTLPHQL
With `O=C(Nc1cnc2[nH]cnn2c1=O)c1ccccc1` the inhibition was 6%.
Compound `Nc1nc2cnc(-c3ccccc3)cn2n1` has an inhibition of 41%.
`Nc1cnc2c(-c3c(F)cccc3F)cccn2c1=O` showed an inhibition of 60%.
With `Cc1cccc(C)c1-c1cn2nc(N)nc2cn1` the inhibition was 52%.
`COc1ccc(-c2cc3c(=O)[nH]cnc3s2)cc1OC` was tested, and the inhibition was 66%.
Work on `COc1ccc(NC(=S)Nc2cnc3[nH]cnn3c2=O)cn1` yielded an inhibition of 0%.

These compounds were tested against MARK4 (human) (UniProt Q96L34) (assay: radiometric filter-binding kinase assay). Settings: compound 100.0 µM; ATP 50 µM.
MARK4 (human), sequence (Q96L34 whole entry, looked up): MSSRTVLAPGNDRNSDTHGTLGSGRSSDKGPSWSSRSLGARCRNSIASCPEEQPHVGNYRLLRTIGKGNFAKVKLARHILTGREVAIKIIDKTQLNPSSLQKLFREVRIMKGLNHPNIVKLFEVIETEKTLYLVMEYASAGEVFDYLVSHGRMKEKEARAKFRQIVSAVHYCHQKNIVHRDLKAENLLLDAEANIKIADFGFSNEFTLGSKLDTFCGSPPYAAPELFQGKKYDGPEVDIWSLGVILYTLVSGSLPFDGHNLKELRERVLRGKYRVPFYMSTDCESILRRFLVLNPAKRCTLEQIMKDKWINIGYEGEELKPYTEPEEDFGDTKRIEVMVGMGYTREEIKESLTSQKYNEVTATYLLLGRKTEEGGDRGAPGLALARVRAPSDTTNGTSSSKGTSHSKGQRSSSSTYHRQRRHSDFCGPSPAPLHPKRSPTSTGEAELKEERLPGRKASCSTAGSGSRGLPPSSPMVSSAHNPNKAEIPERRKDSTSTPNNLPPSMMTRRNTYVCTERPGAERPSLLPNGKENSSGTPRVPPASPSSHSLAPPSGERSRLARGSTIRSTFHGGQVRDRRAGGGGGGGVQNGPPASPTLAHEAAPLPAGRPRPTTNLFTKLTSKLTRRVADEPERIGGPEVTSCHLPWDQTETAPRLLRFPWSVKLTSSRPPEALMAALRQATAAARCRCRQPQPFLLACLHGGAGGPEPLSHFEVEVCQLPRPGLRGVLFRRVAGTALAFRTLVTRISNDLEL
`O=C(Nc1cnc2[nH]cnn2c1=O)c1ccccc1` was tested, and the inhibition was 0%.
Work on `Nc1nc2cnc(-c3ccccc3)cn2n1` yielded an inhibition of 44%.
In the case of `Nc1cnc2c(-c3c(F)cccc3F)cccn2c1=O`, the inhibition is reported as 62%.
`Cc1cccc(C)c1-c1cn2nc(N)nc2cn1` gave an inhibition of 24%.
With `COc1ccc(-c2cc3c(=O)[nH]cnc3s2)cc1OC` the inhibition was 23%.
`COc1ccc(NC(=S)Nc2cnc3[nH]cnn3c2=O)cn1` was tested, and the inhibition was 26%.

These compounds were tested against PRKCG (human) (UniProt P05129) (assay: radiometric filter-binding kinase assay). Settings: compound 100.0 µM; ATP 20 µM.
For `O=C(Nc1cnc2[nH]cnn2c1=O)c1ccccc1`, the inhibition was 2%.
In the case of `Nc1nc2cnc(-c3ccccc3)cn2n1`, the inhibition is reported as 24%.
For `Nc1cnc2c(-c3c(F)cccc3F)cccn2c1=O`, the inhibition was 25%.
For `Cc1cccc(C)c1-c1cn2nc(N)nc2cn1`, the inhibition was 6%.
Work on `COc1ccc(-c2cc3c(=O)[nH]cnc3s2)cc1OC` yielded an inhibition of 0%.
Compound `COc1ccc(NC(=S)Nc2cnc3[nH]cnn3c2=O)cn1` has an inhibition of 0%.

These compounds were tested against MINK1 (human) (UniProt Q8N4C8) (assay: radiometric filter-binding kinase assay). Settings: compound 100.0 µM; ATP 50 µM.
Compound `O=C(Nc1cnc2[nH]cnn2c1=O)c1ccccc1` has an inhibition of 0%.
Work on `Nc1nc2cnc(-c3ccccc3)cn2n1` yielded an inhibition of 68%.
With `Nc1cnc2c(-c3c(F)cccc3F)cccn2c1=O` the inhibition was 75%.
In the case of `Cc1cccc(C)c1-c1cn2nc(N)nc2cn1`, the inhibition is reported as 45%.
With `COc1ccc(-c2cc3c(=O)[nH]cnc3s2)cc1OC` the inhibition was 60%.
`COc1ccc(NC(=S)Nc2cnc3[nH]cnn3c2=O)cn1` gave an inhibition of 16%.

Each compound was assayed against PIM1 (human) (UniProt P11309) (assay: radiometric filter-binding kinase assay). Settings: compound 100.0 µM; ATP 20 µM.
PIM1 (human), sequence (P11309 whole entry, looked up): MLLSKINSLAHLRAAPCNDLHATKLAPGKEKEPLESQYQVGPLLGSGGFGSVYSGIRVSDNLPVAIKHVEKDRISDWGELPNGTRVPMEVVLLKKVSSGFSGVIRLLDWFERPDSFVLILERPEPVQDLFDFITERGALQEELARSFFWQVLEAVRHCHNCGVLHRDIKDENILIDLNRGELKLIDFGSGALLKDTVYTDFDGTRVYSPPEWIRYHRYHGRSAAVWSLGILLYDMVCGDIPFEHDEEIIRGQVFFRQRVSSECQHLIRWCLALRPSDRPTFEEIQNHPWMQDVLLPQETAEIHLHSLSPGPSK
In the case of `O=C(Nc1cnc2[nH]cnn2c1=O)c1ccccc1`, the inhibition is reported as 0%.
Work on `Nc1nc2cnc(-c3ccccc3)cn2n1` yielded an inhibition of 30%.
For `Nc1cnc2c(-c3c(F)cccc3F)cccn2c1=O`, the inhibition was 31%.
With `Cc1cccc(C)c1-c1cn2nc(N)nc2cn1` the inhibition was 18%.
With `COc1ccc(-c2cc3c(=O)[nH]cnc3s2)cc1OC` the inhibition was 38%.
`COc1ccc(NC(=S)Nc2cnc3[nH]cnn3c2=O)cn1` gave an inhibition of 0%.

The compounds below were run against PRKCZ (human) (UniProt Q05513) (assay: radiometric filter-binding kinase assay). Settings: compound 100.0 µM; ATP 5 µM.
In the case of `O=C(Nc1cnc2[nH]cnn2c1=O)c1ccccc1`, the inhibition is reported as 0%.
With `Nc1nc2cnc(-c3ccccc3)cn2n1` the inhibition was 13%.
In the case of `Nc1cnc2c(-c3c(F)cccc3F)cccn2c1=O`, the inhibition is reported as 0%.
With `Cc1cccc(C)c1-c1cn2nc(N)nc2cn1` the inhibition was 6%.
In the case of `COc1ccc(-c2cc3c(=O)[nH]cnc3s2)cc1OC`, the inhibition is reported as 0%.
In the case of `COc1ccc(NC(=S)Nc2cnc3[nH]cnn3c2=O)cn1`, the inhibition is reported as 0%.

Each compound was assayed against MYLK (human) (UniProt Q15746) (assay: radiometric filter-binding kinase assay). Settings: compound 100.0 µM; ATP 50 µM.
`O=C(Nc1cnc2[nH]cnn2c1=O)c1ccccc1` gave an inhibition of 0%.
With `Nc1nc2cnc(-c3ccccc3)cn2n1` the inhibition was 19%.
Compound `Nc1cnc2c(-c3c(F)cccc3F)cccn2c1=O` has an inhibition of 25%.
With `Cc1cccc(C)c1-c1cn2nc(N)nc2cn1` the inhibition was 12%.
In the case of `COc1ccc(-c2cc3c(=O)[nH]cnc3s2)cc1OC`, the inhibition is reported as 0%.
Work on `COc1ccc(NC(=S)Nc2cnc3[nH]cnn3c2=O)cn1` yielded an inhibition of 0%.

Each compound was assayed against PDPK1 (human) (UniProt O15530) (assay: radiometric filter-binding kinase assay). Settings: compound 100.0 µM; ATP 20 µM.
PDPK1 (human), sequence (O15530 whole entry, looked up): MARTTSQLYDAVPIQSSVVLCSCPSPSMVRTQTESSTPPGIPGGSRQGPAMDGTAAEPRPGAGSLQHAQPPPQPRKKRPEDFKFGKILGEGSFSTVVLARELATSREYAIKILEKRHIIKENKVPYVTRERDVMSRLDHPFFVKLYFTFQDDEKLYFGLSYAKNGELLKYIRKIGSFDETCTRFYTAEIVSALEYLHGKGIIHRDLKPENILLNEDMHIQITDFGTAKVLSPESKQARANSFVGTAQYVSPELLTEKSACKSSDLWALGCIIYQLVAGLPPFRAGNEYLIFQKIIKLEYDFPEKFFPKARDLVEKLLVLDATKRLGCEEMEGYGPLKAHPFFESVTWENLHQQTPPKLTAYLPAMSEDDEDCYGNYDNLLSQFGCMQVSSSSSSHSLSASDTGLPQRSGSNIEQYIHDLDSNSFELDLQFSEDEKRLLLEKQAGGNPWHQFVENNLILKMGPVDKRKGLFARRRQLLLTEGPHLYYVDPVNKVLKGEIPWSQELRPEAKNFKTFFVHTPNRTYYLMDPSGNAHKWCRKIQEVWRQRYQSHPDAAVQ
For `O=C(Nc1cnc2[nH]cnn2c1=O)c1ccccc1`, the inhibition was 1%.
`Nc1nc2cnc(-c3ccccc3)cn2n1` gave an inhibition of 35%.
Work on `Nc1cnc2c(-c3c(F)cccc3F)cccn2c1=O` yielded an inhibition of 20%.
For `Cc1cccc(C)c1-c1cn2nc(N)nc2cn1`, the inhibition was 15%.
Work on `COc1ccc(-c2cc3c(=O)[nH]cnc3s2)cc1OC` yielded an inhibition of 41%.
For `COc1ccc(NC(=S)Nc2cnc3[nH]cnn3c2=O)cn1`, the inhibition was 29%.

Same assay, conditions: compound 100.0 µM; ATP 50 µM
In the case of `O=C(Nc1cnc2[nH]cnn2c1=O)c1ccccc1`, the inhibition is reported as 0%.
In the case of `Nc1nc2cnc(-c3ccccc3)cn2n1`, the inhibition is reported as 6%.
`Nc1cnc2c(-c3c(F)cccc3F)cccn2c1=O` showed an inhibition of 57%.
Compound `Cc1cccc(C)c1-c1cn2nc(N)nc2cn1` has an inhibition of 13%.
Compound `COc1ccc(-c2cc3c(=O)[nH]cnc3s2)cc1OC` has an inhibition of 25%.
Compound `COc1ccc(NC(=S)Nc2cnc3[nH]cnn3c2=O)cn1` has an inhibition of 10%.

These compounds were tested against STK33 (human) (UniProt Q9BYT3) (assay: radiometric filter-binding kinase assay). Settings: compound 100.0 µM; ATP 50 µM.
In the case of `O=C(Nc1cnc2[nH]cnn2c1=O)c1ccccc1`, the inhibition is reported as 0%.
In the case of `Nc1nc2cnc(-c3ccccc3)cn2n1`, the inhibition is reported as 20%.
`Nc1cnc2c(-c3c(F)cccc3F)cccn2c1=O` gave an inhibition of 4%.
With `Cc1cccc(C)c1-c1cn2nc(N)nc2cn1` the inhibition was 12%.
Work on `COc1ccc(-c2cc3c(=O)[nH]cnc3s2)cc1OC` yielded an inhibition of 0%.
In the case of `COc1ccc(NC(=S)Nc2cnc3[nH]cnn3c2=O)cn1`, the inhibition is reported as 15%.

Each compound was assayed against MAP3K1 (human) (UniProt Q13233) (assay: radiometric filter-binding kinase assay). Settings: compound 100.0 µM; ATP 50 µM.
Work on `O=C(Nc1cnc2[nH]cnn2c1=O)c1ccccc1` yielded an inhibition of 6%.
With `Nc1nc2cnc(-c3ccccc3)cn2n1` the inhibition was 34%.
For `Nc1cnc2c(-c3c(F)cccc3F)cccn2c1=O`, the inhibition was 21%.
For `Cc1cccc(C)c1-c1cn2nc(N)nc2cn1`, the inhibition was 17%.
`COc1ccc(-c2cc3c(=O)[nH]cnc3s2)cc1OC` showed an inhibition of 0%.
`COc1ccc(NC(=S)Nc2cnc3[nH]cnn3c2=O)cn1` was tested, and the inhibition was 0%.

Each compound was assayed on LCK (mouse) (assay: radiometric filter-binding kinase assay). Settings: compound 100.0 µM; ATP 50 µM; accession and sequence are those of the human protein.
`O=C(Nc1cnc2[nH]cnn2c1=O)c1ccccc1` gave an inhibition of 18%.
`Nc1nc2cnc(-c3ccccc3)cn2n1` gave an inhibition of 75%.
For `Nc1cnc2c(-c3c(F)cccc3F)cccn2c1=O`, the inhibition was 39%.
`Cc1cccc(C)c1-c1cn2nc(N)nc2cn1` gave an inhibition of 37%.
Work on `COc1ccc(-c2cc3c(=O)[nH]cnc3s2)cc1OC` yielded an inhibition of 29%.
Compound `COc1ccc(NC(=S)Nc2cnc3[nH]cnn3c2=O)cn1` has an inhibition of 0%.

The compounds below were run against EPHB3 (human) (UniProt P54753) (assay: radiometric filter-binding kinase assay). Settings: compound 100.0 µM; ATP 20 µM.
For `O=C(Nc1cnc2[nH]cnn2c1=O)c1ccccc1`, the inhibition was 0%.
Compound `Nc1nc2cnc(-c3ccccc3)cn2n1` has an inhibition of 54%.
With `Nc1cnc2c(-c3c(F)cccc3F)cccn2c1=O` the inhibition was 42%.
With `Cc1cccc(C)c1-c1cn2nc(N)nc2cn1` the inhibition was 35%.
Compound `COc1ccc(-c2cc3c(=O)[nH]cnc3s2)cc1OC` has an inhibition of 0%.
In the case of `COc1ccc(NC(=S)Nc2cnc3[nH]cnn3c2=O)cn1`, the inhibition is reported as 8%.
